Several values for one entry are separate records, joined by “and”; a condition that tells them apart may be missing. Equal values may be shown once. Read-outs that look alike come from different tables or passages of the source.
How the values were obtained:
NCI-H358 (K-Ras G12C) = test: CellTiter-Glo cell viability assay, 5-day treatment; assay type: cell-based; details: Homo sapiens
Summary of the method: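 Luminescence read-out after 5 days of compound exposure, with plates first brought to room temperature for roughly 30 minutes. Values are percent of averaged DMSO wells, fitted by four-parameter logistic regression.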

KRAS G12C = KRAS G12C (Homo sapiens, UniProt P01116+P62937, G12C); test: Disruption of BRAF RBD interaction with Ras (FRET / MOA assay, with Cyclophilin A); assay type: biochemical
Summary of the method: (§1)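 Biochemical TR-FRET disruption assay: nucleotide-loaded K-Ras with Cyclophilin A and a BRAF RBD construct, compound titrated over 10 points from 30 μM (final).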

KRAS G12D = KRAS G12D (Homo sapiens, UniProt P01116+P62937, G12D); test: as above; assay type: biochemical
Summary of the method: as §1

KRAS G12S = KRAS G12S (Homo sapiens, UniProt P01116+P62937, G12S); test: as above; assay type: biochemical; details: read-out: KRAS G12S FRET data, IC50
Summary of the method: as §1

KRAS G12V = KRAS G12V (Homo sapiens, UniProt P01116+P62937, G12V); test: as above; assay type: biochemical
Summary of the method: as §1

KRAS G13C = KRAS G13C (Homo sapiens, UniProt P01116+P62937, G13C); test: as above; assay type: biochemical
Summary of the method: as §1

KRAS G13D = KRAS G13D (Homo sapiens, UniProt P01116+P62937, G13D); test: as above; assay type: biochemical
Summary of the method: as §1

KRAS WT = KRAS WT (Homo sapiens, UniProt P01116+P62937); test: as above; assay type: biochemical; details: KRAS WT; read-out: KRAS WT FRET data IC50
Summary of the method: as §1

NRAS G12C = NRAS G12C (Homo sapiens, UniProt P01111+P62937, G12C); test: as above; assay type: biochemical; details: NRAS G12C; read-out: NRAS G12C FRET data IC50
KRAS Q61H = KRAS Q61H (Homo sapiens, UniProt P01116+P62937, Q61H); test: as above; assay type: biochemical; details: KRAS Q61H; read-out: KRAS Q61H FRET data IC50
Summary of the method: (§2)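 IC50 reflects compound-driven Ras:Cyclophilin A ternary complex displacing BRAF RBD, read as lowered TR-FRET ratio relative to DMSO after Eu anti-His (10 nM) and APC anti-GST (50 nM) detection for 1.5 h. Prior incubation 3 h, 25° C, with 12.5 nM GMPPNP-loaded Ras, 50 nM BRAF RBD, 25 μM Cyclophilin A; top compound 30 μM.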

NRAS Q61K = NRAS Q61K (Homo sapiens, UniProt P01111+P62937, Q61K); test: as above; assay type: biochemical; details: NRAS Q61K; read-out: NRAS Q61K FRET data IC50
Summary of the method: as §2

NRAS Q61R = NRAS Q61R (Homo sapiens, UniProt P01111+P62937, Q61R); test: as above; assay type: biochemical; details: NRAS Q61R; read-out: NRAS Q61R FRET data IC50
Summary of the method: as §2

[1] = read-out: KRAS G12D FRET data, IC50
[2] = KRAS G12V, read-out: KRAS G12V FRET data IC50
[3] = NCI-H358, H358, K-Ras G12C, read-out: Additional H358 Cell Viability assay data (K-Ras G12C, IC50)
[4] = KRAS G12C, read-out: KRAS G12C FRET data IC50
[5] = KRAS G13C, read-out: KRAS G13C FRET data IC50
[6] = KRAS G13D, read-out: KRAS G13D FRET data IC50

KRAS Q61H, sequence (P01116 1-169 isoform P01116-2 Q61H limits assumed): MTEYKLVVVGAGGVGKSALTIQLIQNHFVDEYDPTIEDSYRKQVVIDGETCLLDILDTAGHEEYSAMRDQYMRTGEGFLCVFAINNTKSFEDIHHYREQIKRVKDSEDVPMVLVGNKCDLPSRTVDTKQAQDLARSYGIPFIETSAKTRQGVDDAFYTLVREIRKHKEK
KRAS Q61H, sequence (P62937 whole entry): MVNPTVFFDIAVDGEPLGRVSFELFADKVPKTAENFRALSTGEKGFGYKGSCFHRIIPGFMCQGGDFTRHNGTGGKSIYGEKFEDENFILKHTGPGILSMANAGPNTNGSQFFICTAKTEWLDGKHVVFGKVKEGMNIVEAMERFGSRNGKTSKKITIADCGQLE
KRAS G13D, sequence (P01116 1-169 isoform P01116-2 G13D limits assumed): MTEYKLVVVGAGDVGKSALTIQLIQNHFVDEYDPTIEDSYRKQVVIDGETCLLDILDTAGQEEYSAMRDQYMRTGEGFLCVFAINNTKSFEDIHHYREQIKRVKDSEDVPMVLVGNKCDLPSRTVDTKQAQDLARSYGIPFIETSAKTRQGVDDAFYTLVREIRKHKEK
KRAS G13D, sequence (P62937 whole entry): as the sequence (P62937 whole entry) above
NRAS Q61K, sequence (P01111 whole entry Q61K): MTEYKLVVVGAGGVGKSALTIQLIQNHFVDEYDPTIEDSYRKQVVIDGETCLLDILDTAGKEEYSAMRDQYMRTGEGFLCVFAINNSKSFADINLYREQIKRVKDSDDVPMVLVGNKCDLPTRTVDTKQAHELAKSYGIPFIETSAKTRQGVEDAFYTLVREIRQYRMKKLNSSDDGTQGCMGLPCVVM
NRAS Q61K, sequence (P62937 whole entry): as the sequence (P62937 whole entry) above
KRAS G12C, sequence (P01116 1-169 isoform P01116-2 G12C): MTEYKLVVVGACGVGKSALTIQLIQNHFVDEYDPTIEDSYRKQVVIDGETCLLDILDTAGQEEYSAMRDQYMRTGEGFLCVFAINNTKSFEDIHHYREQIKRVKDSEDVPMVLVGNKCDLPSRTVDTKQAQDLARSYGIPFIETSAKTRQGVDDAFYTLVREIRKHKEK
KRAS G12C, sequence (P62937 whole entry): as the sequence (P62937 whole entry) above
NRAS G12C, sequence (P01111 whole entry G12C): as the sequence (P01111 whole entry Q61K) above, with G12C, K61Q counted along it
NRAS G12C, sequence (P62937 whole entry): as the sequence (P62937 whole entry) above
KRAS G13C, sequence (P01116 1-169 isoform P01116-2 G13C): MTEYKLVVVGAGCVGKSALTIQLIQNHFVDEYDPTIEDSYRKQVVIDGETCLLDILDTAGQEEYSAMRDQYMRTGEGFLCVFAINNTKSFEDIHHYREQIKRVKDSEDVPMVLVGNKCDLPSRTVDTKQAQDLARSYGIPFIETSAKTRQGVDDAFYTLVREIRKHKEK
KRAS G13C, sequence (P62937 whole entry): as the sequence (P62937 whole entry) above
KRAS G12D, sequence (P01116 1-169 isoform P01116-2 G12D limits assumed): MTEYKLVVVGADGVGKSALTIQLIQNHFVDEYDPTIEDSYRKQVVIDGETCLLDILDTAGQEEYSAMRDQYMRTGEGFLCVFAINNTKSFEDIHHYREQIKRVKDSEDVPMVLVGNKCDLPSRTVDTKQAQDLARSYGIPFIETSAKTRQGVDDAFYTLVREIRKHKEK
KRAS G12D, sequence (P62937 whole entry): as the sequence (P62937 whole entry) above
KRAS G12V, sequence (P01116 1-169 isoform P01116-2 G12V limits assumed): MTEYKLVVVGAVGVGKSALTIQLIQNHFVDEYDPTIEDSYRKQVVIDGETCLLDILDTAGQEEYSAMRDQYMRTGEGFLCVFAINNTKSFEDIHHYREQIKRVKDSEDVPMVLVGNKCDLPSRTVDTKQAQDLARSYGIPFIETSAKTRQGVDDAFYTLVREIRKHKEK
KRAS G12V, sequence (P62937 whole entry): as the sequence (P62937 whole entry) above
KRAS WT, sequence (P01116 1-169 isoform P01116-2 limits assumed): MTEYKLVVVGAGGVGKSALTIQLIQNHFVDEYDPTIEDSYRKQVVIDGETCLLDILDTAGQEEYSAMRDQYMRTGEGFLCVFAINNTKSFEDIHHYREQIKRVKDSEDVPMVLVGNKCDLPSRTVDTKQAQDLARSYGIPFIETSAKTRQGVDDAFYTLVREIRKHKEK
KRAS WT, sequence (P62937 whole entry): as the sequence (P62937 whole entry) above
NRAS Q61R, sequence (P01111 whole entry Q61R): as the sequence (P01111 whole entry Q61K) above, with K61R counted along it
NRAS Q61R, sequence (P62937 whole entry): as the sequence (P62937 whole entry) above
KRAS G12S, sequence (P01116 1-169 isoform P01116-2 G12S limits assumed): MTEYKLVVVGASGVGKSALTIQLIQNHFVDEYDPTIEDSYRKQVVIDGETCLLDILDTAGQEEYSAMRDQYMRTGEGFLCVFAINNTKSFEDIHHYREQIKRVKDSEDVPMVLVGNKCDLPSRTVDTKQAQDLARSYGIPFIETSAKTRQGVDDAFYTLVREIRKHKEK
KRAS G12S, sequence (P62937 whole entry): as the sequence (P62937 whole entry) above

Structure (SMILES) | IC50 (NCI-H358 (K-Ras G12C); NCI-H358, 120 h, 5-day treatment, read-out: H358 Cell Viability IC50) [nM] | IC50 (KRAS G12C; read-out: FRET G12C IC50) [nM] | IC50 (KRAS G12C; read-out: KRAS G12C FRET data, IC50) | IC50 (KRAS G12D; read-out: FRET G12D IC50) [nM] | IC50 (KRAS G12D; [1]) | IC50 (KRAS G12S) | IC50 (KRAS G12V; [2]) | IC50 (KRAS G12V; read-out: FRET G12V IC50) [nM] | IC50 (KRAS G13C; read-out: FRET G13C IC50) [nM] | IC50 (KRAS G13C; read-out: KRAS G13C FRET data, IC50) | IC50 (KRAS G13D; read-out: FRET G13D IC50) [nM] | IC50 (KRAS WT) | IC50 (NRAS G12C) | IC50 (KRAS Q61H) [nM] | IC50 (NRAS Q61K) [nM] | IC50 (NRAS Q61R) [nM] | IC50 (NCI-H358 (K-Ras G12C); [3]) [nM] | IC50 (KRAS G12C; [4]) | IC50 (KRAS G13C; [5]) [nM] | IC50 (KRAS G13D; [6]) [nM]
CCn1c(-c2cccnc2[C@H](C)OC)c2c3cc(ccc31)-c1cc(O)cc(c1)C[C@H](NC(=O)[C@H](C(C)C)N(C)C(=O)[C@H]1CCN(C(=O)OC)C1)C(=O)N1CCC[C@H](N1)C(=O)OCC(C)(C)C2 (atropisomer, axis not shown) [Example A3] | 57 | 29 | 1000 to 10000 nM and 10 to 100 nM | 545 | 100 to 1000 nM and > 10000 nM | 1000 to 10000 nM and 10 to 100 nM | 1000 to 10000 nM and 10 to 100 nM | 43 | 99 | 1000 to 10000 nM and 10 to 100 nM | 160 | 1000 to 10000 nM and 10 to 100 nM | 1000 to 10000 nM and 10 to 100 nM | 10 to 100 | 100 to 1000 | 100 to 1000 |  |  |  | 
CCn1c(-c2cccnc2[C@H](C)OC)c2c3cc(ccc31)-c1csc(n1)C[C@H](NC(=O)[C@H](C(C)C)N(C)C(=O)N(C)C1CN(C(=O)/C=C/C(C)(C)O)C1)C(=O)N1CCC[C@H](N1)C(=O)OCC(C)(C)C2 (atropisomer, axis not shown) [Example A350] |  |  |  |  | 1000 to 10000 nM | 100 to 1000 nM | 100 to 1000 nM |  |  |  |  | 100 to 1000 nM | 10 to 100 nM | 10 to 100 | 10 to 100 | 100 to 1000 | 100 to 1000 | 10 to 100 nM | 100 to 1000 | 100 to 1000
CCn1c(-c2cccnc2[C@H](C)OC)c2c3cc(ccc31)-c1cccc(c1)C[C@H](NC(=O)[C@@H](COC1CN(C(=O)C#C[C@@H]3COCCN3C)C1)C(C)C)C(=O)N1CCC[C@H](N1)C(=O)OCC(C)(C)C2 (atropisomer, axis not shown) [Example A648] |  |  |  |  | > 10000 nM | > 10000 nM | > 10000 nM |  |  |  |  | 1000 to 10000 nM | 100 to 1000 nM | > 10000 | > 10000 | > 10000 | 10 to 100 | 100 to 1000 nM | 1000 to 10000 | > 10000
C=CC(=O)N1CC[C@]2(C1)OCN(C(=O)N(C)[C@H](C(=O)N[C@H]1Cc3cccc(n3)-c3ccc4c(c3)c(c(-c3cccnc3[C@H](C)OC)n4CC)CC(C)(C)COC(=O)[C@@H]3CCCN(N3)C1=O)C(C)C)C2=O (atropisomer, axis not shown) [Example A652] |  |  |  |  | > 10000 nM | 1000 to 10000 nM | 1000 to 10000 nM |  |  |  |  | 1000 to 10000 nM | 100 to 1000 nM | 1000 to 10000 | 1000 to 10000 | 1000 to 10000 | 100 to 1000 | 100 to 1000 nM | 100 to 1000 | 1000 to 10000
C=CC(=O)N1CC[C@H](C(=O)N(C)[C@H](C(=O)N[C@H]2Cc3nsc(n3)-c3ccc4c(c3)c(c(-c3cccnc3[C@H](C)OC)n4CC)CC(C)(C)COC(=O)[C@@H]3CCCN(N3)C2=O)C(C)C)C1 (atropisomer, axis not shown) [Example A694] |  |  |  |  | 1000 to 10000 nM | 1000 to 10000 nM | 1000 to 10000 nM |  |  |  |  | 1000 to 10000 nM | 100 to 1000 nM | 100 to 1000 | 100 to 1000 | 1000 to 10000 | 10 to 100 | 100 to 1000 nM | 100 to 1000 | 1000 to 10000
CCn1c(-c2cccnc2[C@H](C)OC)c2c3cc(ccc31)-c1csc(n1)C[C@H](NC(=O)[C@H](COC1CN(C(=O)C#CC(C)(C)N(C)C)C1)OC)C(=O)N1CCC[C@H](N1)C(=O)OCC(C)(C)C2 (atropisomer, axis not shown) [Example A705] |  |  |  |  | > 10000 nM | 1000 to 10000 nM | 1000 to 10000 nM |  |  |  |  | 1000 to 10000 nM | < 10 nM | 1000 to 10000 | 1000 to 10000 | > 10000 | < 10 | < 10 nM | 1000 to 10000 | > 10000
C=CC(=O)N1CC[C@H](C(=O)N(C)[C@H](C(=O)N[C@H]2Cc3cc(O)cc(c3)-c3cnc4c(c3)c(c(-c3ccccc3CCOC)n4CC)CC(C)(C)COC(=O)[C@@H]3CCCN(N3)C2=O)C(C)C)C1 [Example A210] |  |  |  |  | > 10000 nM | 1 µM to 10 µM and > 10 µM (3×) | 1 µM to 10 µM and > 10 µM (3×) |  |  |  |  | > 10000 nM | 100 nM to 1 µM and 1 µM to 10 µM and > 10 µM (2×) | 1000 to 10000 | 1000 to 10000 | > 10000 |  | 100 nM to 1 µM and 1 µM to 10 µM and > 10 µM (2×) | > 10000 | > 10000
C=CC(=O)N(C)C1CCN(C(=O)N(C)[C@H](C(=O)N[C@H]2Cc3nc(cs3)-c3ccc4c(c3)c(c(-c3cccnc3[C@H](C)OC)n4CC)CC(C)(C)COC(=O)[C@@H]3CCCN(N3)C2=O)C(C)C)C1 (stereo partly drawn) [Example A384] |  |  |  |  |  |  |  |  |  |  |  |  | 10 to 100 nM | 10 to 100 | 10 to 100 | 100 to 1000 | < 10 | 10 to 100 nM |  | 100 to 1000
CO[C@@H](COC1CN(C(=O)C#CC(C)(C)N(C)C)C1)C(=O)N[C@H]1Cc2cccc(c2)-c2ccc3c(c2)c(c(-c2cccnc2[C@H](C)OC)n3CC(F)(F)F)CC(C)(C)COC(=O)[C@@H]2CCCN(N2)C1=O [Example A556] |  |  |  |  | > 10000 nM | > 10000 nM | 1000 to 10000 nM |  |  |  |  | 1000 to 10000 nM | < 10 nM |  | > 10000 | > 10000 | < 10 | < 10 nM | 1000 to 10000 | > 10000
CCn1c(-c2cccnc2[C@H](C)OC)c2c3cc(ccc31)N1CCO[C@@H](C[C@H](NC(=O)[C@H](C(C)C)N(C)C(=O)[C@@]3(F)CCN(C(=O)C#CC(C)(C)N4CCC4)C3)C(=O)N3CCC[C@H](N3)C(=O)OCC(C)(C)C2)C1 [Example A726] |  |  |  |  | > 10000 nM | 1000 to 10000 nM | 1000 to 10000 nM |  |  |  |  | 1000 to 10000 nM | 10 to 100 nM |  | > 10000 | > 10000 | < 10 |  | 100 to 1000 | 
